In patent US20260193293A1, “PEPTIDES CAPABLE OF INHIBITING PROTEIN-PROTEIN INTERACTIONS AT GABAB1A SUBUNIT AND USES THEREOF” (UNIVERSITY OF COPENHAGEN, priority 2022, published 2026):
Residues, ends and D or L forms follow the SMILES beside them.

target: Sushi domains (SD1/2) protein; assay: Fluorescence polarization (FP) competition assay with AJAP-1probe, calculated Ki; assay type: binding; conditions: Table 4, truncation and elongation scans of APP epitope; read-out: Ki (nM) mean ± SEM
Outline: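 Ki values were derived from IC50s (sigmoidal fits, ≥ triplicate), with probe Kd obtained by saturation titration of SD1/2. Peptides displaced a 25 nM TAMRA-labelled probe; polarization read at 530/580 nm in 1% BSA-containing PBS, pH 7.4, room temperature.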

Q: With `CC(=O)N[C@@H](CO)C(=O)N[C@@H](C)C(=O)N[C@@H](CC(=O)O)C(=O)N[C@@H](C)C(=O)N[C@@H](CCC(=O)O)C(=O)N[C@@H](CCC(=O)O)C(=O)N[C@@H](CC(=O)O)C(=O)N[C@@H](CC(=O)O)C(=O)N[C@@H](CO)C(=O)N[C@@H](CC(=O)O)C(=O)N[C@H](C(=O)N[C@@H](Cc1c[nH]c2ccccc12)C(=O)N[C@@H](Cc1c[nH]c2ccccc12)C(=O)NCC(=O)NCC(=O)N[C@@H](C)C(=O)N[C@@H](CC(=O)O)C(=O)N[C@H](C(=O)N[C@@H](CC(=O)O)C(=O)N[C@@H](Cc1ccc(O)cc1)C(=O)N[C@@H](C)C(=O)N[C@@H](CC(=O)O)C(N)=O)[C@@H](C)O)C(C)C` (Ac-SADAEEDDSDVWWGGADTDYAD-NH2) as the compound, how does the Ki read?
A: 284 ± 5 nM

Q: `CC(=O)N[C@@H](CO)C(=O)N[C@@H](CC(=O)O)C(=O)N[C@H](C(=O)N[C@@H](Cc1c[nH]c2ccccc12)C(=O)N[C@@H](Cc1c[nH]c2ccccc12)C(=O)NCC(=O)NCC(=O)N[C@@H](C)C(=O)N[C@@H](CC(=O)O)C(=O)N[C@H](C(=O)N[C@@H](CC(=O)O)C(=O)N[C@@H](Cc1ccc(O)cc1)C(=O)N[C@@H](C)C(=O)N[C@@H](CC(=O)O)C(N)=O)[C@@H](C)O)C(C)C` (Ac-SDVWWGGADTDYAD-NH2) was tested. Which Ki did it give?
A: 2950 ± 82 nM

same assay, conditions: Table 5, elongation and truncation scan of AJAP-1 binding epitope; read-out: Ki (nM) mean ± SEM

Q: Which Ki does the source give for `CC[C@H](C)[C@H](NC(=O)[C@H](Cc1ccccc1)NC(=O)[C@H](CCC(=O)O)NC(=O)[C@@H](NC(=O)[C@H](CCC(=O)O)NC(=O)[C@@H](NC(C)=O)[C@@H](C)O)[C@@H](C)O)C(=O)N[C@@H](C)C(=O)N[C@@H](Cc1c[nH]c2ccccc12)C(N)=O` (Ac-TETEFIAW-NH2) here?
A: 1010 ± 67 nM

Q: With `CC[C@H](C)[C@H](NC(=O)[C@H](Cc1ccccc1)NC(=O)[C@H](CCC(=O)O)NC(=O)[C@@H](NC(=O)[C@H](CCC(=O)O)NC(=O)[C@@H](NC(C)=O)[C@@H](C)O)[C@@H](C)O)C(=O)N[C@@H](C)C(=O)N[C@@H](Cc1c[nH]c2ccccc12)C(=O)NCC(N)=O` (Ac-TETEFIAWG-NH2) as the compound, how does the Ki read?
A: 2470 ± 170 nM

Q: `CC[C@H](C)[C@H](NC(=O)[C@H](Cc1ccccc1)NC(=O)[C@H](CCC(=O)O)NC(=O)[C@@H](NC(=O)[C@H](CCC(=O)O)NC(=O)[C@@H](NC(C)=O)[C@@H](C)O)[C@@H](C)O)C(=O)N[C@@H](C)C(=O)N[C@@H](Cc1c[nH]c2ccccc12)C(=O)NCC(=O)N1CCC[C@H]1C(N)=O` (Ac-TETEFIAWGP-NH2) was tested. Which Ki did it give?
A: 574 ± 7 nM

Q: How did the Ki turn out when `CC[C@H](C)[C@H](NC(=O)[C@H](Cc1ccccc1)NC(=O)[C@H](CCC(=O)O)NC(=O)[C@@H](NC(=O)[C@H](CCC(=O)O)NC(=O)[C@@H](NC(C)=O)[C@@H](C)O)[C@@H](C)O)C(=O)N[C@@H](C)C(=O)N[C@@H](Cc1c[nH]c2ccccc12)C(=O)NCC(=O)N1CCC[C@H]1C(=O)N[C@H](C(N)=O)[C@@H](C)O` (Ac-TETEFIAWGPT-NH2) was run?
A: 236 ± 9 nM

Q: With `CC[C@H](C)[C@H](NC(=O)[C@H](Cc1ccccc1)NC(=O)[C@H](CCC(=O)O)NC(=O)[C@@H](NC(=O)[C@H](CCC(=O)O)NC(=O)[C@@H](NC(C)=O)[C@@H](C)O)[C@@H](C)O)C(=O)N[C@@H](C)C(=O)N[C@@H](Cc1c[nH]c2ccccc12)C(=O)NCC(=O)N1CCC[C@H]1C(=O)N[C@H](C(=O)NCC(N)=O)[C@@H](C)O` (Ac-TETEFIAWGPTG-NH2) as the compound, how does the Ki read?
A: 248 ± 7 nM

Q: With `CC[C@H](C)[C@H](NC(=O)[C@H](Cc1ccccc1)NC(=O)[C@H](CCC(=O)O)NC(=O)[C@@H](NC(=O)[C@H](CCC(=O)O)NC(=O)[C@@H](NC(C)=O)[C@@H](C)O)[C@@H](C)O)C(=O)N[C@@H](C)C(=O)N[C@@H](Cc1c[nH]c2ccccc12)C(=O)NCC(=O)N1CCC[C@H]1C(=O)N[C@H](C(=O)NCC(=O)N[C@@H](CC(=O)O)C(N)=O)[C@@H](C)O` (Ac-TETEFIAWGPTGD-NH2) as the compound, how does the Ki read?
A: 97 ± 7 nM

Q: `CC[C@H](C)[C@H](NC(=O)[C@H](Cc1ccccc1)NC(=O)[C@H](CCC(=O)O)NC(=O)[C@@H](NC(=O)[C@H](CCC(=O)O)NC(=O)[C@@H](NC(C)=O)[C@@H](C)O)[C@@H](C)O)C(=O)N[C@@H](C)C(=O)N[C@@H](Cc1c[nH]c2ccccc12)C(=O)NCC(=O)N1CCC[C@H]1C(=O)N[C@H](C(=O)NCC(=O)N[C@@H](CC(=O)O)C(=O)N[C@@H](CCC(=O)O)C(N)=O)[C@@H](C)O` (Ac-TETEFIAWGPTGDE-NH2) was tested. Which Ki did it give?
A: 69 ± 1 nM

Q: With `CC[C@H](C)[C@H](NC(=O)[C@H](Cc1ccccc1)NC(=O)[C@H](CCC(=O)O)NC(=O)[C@@H](NC(=O)[C@H](CCC(=O)O)NC(=O)[C@@H](NC(C)=O)[C@@H](C)O)[C@@H](C)O)C(=O)N[C@@H](C)C(=O)N[C@@H](Cc1c[nH]c2ccccc12)C(=O)NCC(=O)N1CCC[C@H]1C(=O)N[C@H](C(=O)NCC(=O)N[C@@H](CC(=O)O)C(=O)N[C@@H](CCC(=O)O)C(=O)N[C@@H](CC(=O)O)C(=O)N[C@@H](C)C(N)=O)[C@@H](C)O` (Ac-TETEFIAWGPTGDEDA-NH2) as the compound, how does the Ki read?
A: 36 ± 1.7 nM

Q: `CC[C@H](C)[C@H](NC(=O)[C@H](Cc1ccccc1)NC(=O)[C@H](CCC(=O)O)NC(=O)[C@@H](NC(=O)[C@H](CCC(=O)O)NC(=O)[C@@H](NC(C)=O)[C@@H](C)O)[C@@H](C)O)C(=O)N[C@@H](C)C(=O)N[C@@H](Cc1c[nH]c2ccccc12)C(=O)NCC(=O)N1CCC[C@H]1C(=O)N[C@H](C(=O)NCC(=O)N[C@@H](CC(=O)O)C(=O)N[C@@H](CCC(=O)O)C(=O)N[C@@H](CC(=O)O)C(=O)N[C@@H](C)C(=O)N[C@@H](CC(C)C)C(N)=O)[C@@H](C)O` (Ac-TETEFIAWGPTGDEDAL-NH2) was tested. Which Ki did it give?
A: 47 ± 2 nM

same assay, conditions: Table 6, elongation and truncation scan of PIANP binding epitope; read-out: Ki (nM) mean ± SEM

Q: For `CC[C@H](C)[C@H](NC(=O)[C@H](C)NC(=O)[C@H](Cc1c[nH]c2ccccc12)NC(=O)[C@@H]1CCCN1C(=O)[C@H](Cc1ccc(O)cc1)NC(=O)[C@H](CCC(N)=O)NC(=O)[C@H](CO)NC(C)=O)C(=O)N[C@H](C(=O)N[C@@H](Cc1c[nH]c2ccccc12)C(=O)NCC(=O)N1CCC[C@H]1C(=O)N[C@H](C(=O)N[C@H](C(=O)N[C@@H](CO)C(=O)N[C@@H](CCCNC(=N)N)C(=O)N[C@@H](CCC(=O)O)C(=O)N[C@@H](CC(=O)O)C(=O)NCC(N)=O)C(C)C)[C@@H](C)O)C(C)C` (Ac-SQYPWAIVWGPTVSREDG-NH2), which Ki is on record?
A: 762 ± 13 nM

Q: With `CC[C@H](C)[C@H](NC(=O)[C@H](C)NC(=O)[C@H](Cc1c[nH]c2ccccc12)NC(=O)[C@@H]1CCCN1C(=O)[C@H](Cc1ccc(O)cc1)NC(=O)[C@H](CCC(N)=O)NC(=O)[C@H](CO)NC(=O)[C@H](CO)NC(C)=O)C(=O)N[C@H](C(=O)N[C@@H](Cc1c[nH]c2ccccc12)C(=O)NCC(=O)N1CCC[C@H]1C(=O)N[C@H](C(=O)N[C@H](C(=O)N[C@@H](CO)C(=O)N[C@@H](CCCNC(=N)N)C(=O)N[C@@H](CCC(=O)O)C(=O)N[C@@H](CC(=O)O)C(=O)NCC(N)=O)C(C)C)[C@@H](C)O)C(C)C` (Ac-SSQYPWAIVWGPTVSREDG-NH2) as the compound, how does the Ki read?
A: 29900 ± 2000 nM

same assay, conditions: Table 14, CPPs tagged peptides; read-out: Ki (nM) mean ± SEM

Q: `CC[C@H](C)[C@H](NC(=O)[C@H](Cc1c[nH]c2ccccc12)NC(=O)[C@H](CC(=O)O)NC(=O)[C@H](CC(=O)O)NC(=O)[C@H](CC(=O)O)NC(=O)[C@H](CCC(=O)O)NC(=O)[C@H](CCCNC(=N)N)NC(=O)[C@H](CCCNC(=N)N)NC(=O)[C@H](CCCNC(=N)N)NC(=O)[C@H](CCCNC(=N)N)NC(=O)[C@H](CCCNC(=N)N)NC(=O)[C@H](CCCNC(=N)N)NC(C)=O)C(=O)N[C@@H](CC(=O)O)C(=O)N[C@@H](Cc1c[nH]c2ccccc12)C(=O)NCC(=O)N1CCC[C@H]1C(=O)N[C@H](C(=O)N[C@@H](CO)C(=O)N[C@@H](CC(=O)O)C(=O)N[C@@H](CC(=O)O)C(=O)N[C@@H](CC(=O)O)C(N)=O)[C@@H](C)O` (Ac-RRRRRREDDDWIDWGPTSDDD-NH2) was tested. Which Ki did it give?
A: 43.4 ± 1 nM

Q: With `CC[C@H](C)[C@H](NC(=O)[C@H](Cc1c[nH]c2ccccc12)NC(=O)[C@H](CC(=O)O)NC(=O)[C@H](CC(=O)O)NC(=O)[C@H](CC(=O)O)NC(=O)[C@H](CCC(=O)O)NC(=O)[C@H](CCCNC(=N)N)NC(=O)[C@H](CCCNC(=N)N)NC(=O)[C@H](CCCNC(=N)N)NC(=O)[C@H](CCCNC(=N)N)NC(=O)[C@H](CCCNC(=N)N)NC(=O)[C@H](CCCNC(=N)N)NC(C)=O)C(=O)N[C@@H](CC(=O)O)C(=O)N[C@@H](Cc1c[nH]c2ccccc12)C(=O)N[C@@H](Cc1ccc(O)cc1)C(=O)N[C@@H](CC(=O)O)C(=O)N[C@@H](CO)C(=O)N[C@@H](CC(=O)O)C(=O)N[C@@H](CC(=O)O)C(=O)N[C@@H](CC(=O)O)C(N)=O` (Ac-RRRRRREDDDWIDWYDSDDD-NH2) as the compound, how does the Ki read?
A: 70.9 ± 1 nM

Q: `CC[C@H](C)[C@H](NC(=O)[C@H](Cc1c[nH]c2ccccc12)NC(=O)[C@H](CC(=O)O)NC(=O)[C@H](CC(=O)O)NC(=O)[C@H](CC(=O)O)NC(=O)[C@H](CCC(=O)O)NC(=O)[C@H](CCCNC(=N)N)NC(=O)[C@H](CCCNC(=N)N)NC(=O)[C@H](CCCNC(=N)N)NC(=O)[C@H](CCCNC(=N)N)NC(=O)[C@H](CCCNC(=N)N)NC(=O)[C@H](CCCNC(=N)N)NC(=O)[C@H](CCCNC(=N)N)NC(C)=O)C(=O)N[C@@H](CC(=O)O)C(=O)N[C@@H](Cc1c[nH]c2ccccc12)C(=O)NCC(=O)N1CCC[C@H]1C(=O)N[C@H](C(=O)N[C@@H](CO)C(=O)N[C@@H](CC(=O)O)C(=O)N[C@@H](CC(=O)O)C(=O)N[C@@H](CC(=O)O)C(N)=O)[C@@H](C)O` (Ac-RRRRRRREDDDWIDWGPTSDDD-NH2) was tested. Which Ki did it give?
A: 65 ± 2 nM

Q: How did the Ki turn out when `CC[C@H](C)[C@H](NC(=O)[C@H](Cc1c[nH]c2ccccc12)NC(=O)[C@H](CC(=O)O)NC(=O)[C@H](CC(=O)O)NC(=O)[C@H](CC(=O)O)NC(=O)[C@H](CCC(=O)O)NC(=O)[C@H](CCCNC(=N)N)NC(=O)[C@H](CCCNC(=N)N)NC(=O)[C@H](CCCNC(=N)N)NC(=O)[C@H](CCCNC(=N)N)NC(=O)[C@H](CCCNC(=N)N)NC(=O)[C@H](CCCNC(=N)N)NC(=O)[C@H](CCCNC(=N)N)NC(C)=O)C(=O)N[C@@H](CC(=O)O)C(=O)N[C@@H](Cc1c[nH]c2ccccc12)C(=O)N[C@@H](Cc1ccc(O)cc1)C(=O)N[C@@H](CC(=O)O)C(=O)N[C@@H](CO)C(=O)N[C@@H](CC(=O)O)C(=O)N[C@@H](CC(=O)O)C(=O)N[C@@H](CC(=O)O)C(N)=O` (Ac-RRRRRRREDDDWIDWYDSDDD-NH2) was run?
A: 89.1 ± 3 nM
